According to US9649282B2, “Diversion- and/or abuse-resistant compositions and methods for making the same” (Invincible Biotechnology, LLC, priority 2010, dated 2017):

Experiment: Abuse resistance through nasal inhalation: aminophylline in blood serum after intranasal administration to mice (HPLC)
Assay type: in vivo, male mice (CBA C50 Black F1 line)
Conditions: 10 μL of solution, blood from retro-orbital sinus about 3 to 5 minutes after administration, pool of three mice
Protocol: 10 μL of each experimental solution was administered to a corresponding pool of three mice. About 3 to 5 minutes after administration, blood samples were drawn from the retro-orbital sinuses (sinus retroorbitalis) of the mice, combined and centrifuged for 10 minutes at 3000 rpm. The collected serum was then deproteinized with 0.3 M trichloroacetic acid at a serum to acid ratio of about 0.2 ml to 1.0 ml. To complete the precipitation of proteins, the samples were maintained in a thermostat at 20° C. for about 20 minutes and then filtered through a 0.45 micron acetate cellulose filter. The filtrates were analyzed for aminophylline concentration by injecting 20 μL samples into an HPLC, Schimadzu LC-20AD with photodiode array detector (PDA) and Phenomenex Luna 5μ C18, […] column. Acetonitrile in 0.1M phosphoric acid was used as a Mobile phase with linear gradient of acetonitrile of 1-50% vol., pressure 6.3 Mpa, flow rate 0.5 ml/min, and detector wavelength of about 272 nm.
The chromatograms of serums from Controls 1 and 2 with aminophylline concentration of 4% by weight and 24% by weight are shown in FIGS. 9 and 10, respectively. Similar chromatograms were prepared for all of the samples. The areas of the aminophylline peaks that are proportional to its concentration in the blood taken from the retro-orbital sinus, are presented in Table 6 below: […]

| SMILES | Aminophylline Concentration in Blood Serum |
| --- | --- |
| Cn1c(=O)c2[nH]cnc2n(C)c1=O [Control-2, aminophylline] | 20.09 µg/mL |
| Cn1c(=O)c2[nH]cnc2n(C)c1=O [Control-1, aminophylline] | 19.91 µg/mL |
